Measurements published in patent US10487054B2, “Therapeutic compounds” (REGENTS OF THE UNIVERSITY OF MINNESOTA, priority 2017, dated 2019).

System: SKH-1 hairless mice
Test: SUV-induced mouse skin tumorigenesis, early-stage prevention model
Assay type: in vivo
Protocol: Tumor volume was calculated according to the following formula: tumor volume (mm^3)=length×width×height×0.52. […] For 4B and 4C, data are represented as mean values±S.D. and significant differences were determined by one-way ANOVA. The asterisk (*) indicates a significant decrease compared to the SUV only or the vehicle and SUV-treated groups (***, p<0.001). […] Dorsal trunk skin samples were harvested and stained with H&E (left panels) or with an antibody to detect PCNA (right panels). […] Expression of PCNA was quantified using Image-Pro Plus software and stained cells were counted from 5 separate areas on each slide (lower panel). An average of 3 samples was calculated per group. Data are expressed as mean percent of control±S.D. and the asterisks indicate a significant difference in PCNA expression (***, p<0.001). […] The expression levels of phosphorylated and total proteins were analyzed by Western blot.
Mice were weighed once a week until the end of the study at week 28. […] SKH-1 hairless mice were treated as described in Materials and Methods. The mice in the control groups (n=9) received no vehicle/no SUV (n=3), vehicle/no SUV (n=3), or 1 mg […]/no SUV (n=3), respectively. The mice in the SUV treated group received SUV only (n=12) and the mice in the vehicle/SUV-treated group (n=12) were treated with oil-in-water emulsion cream before SUV exposure. The mice in the 0.1 mg/SUV or 1 mg/SUV groups (n=12 each) received treatment with compound 1 (0.1 or 1 mg, respectively) before SUV exposure. The frequency of irradiation was set at 3 times a week for 15 weeks. The respective doses of oil-in-water emulsion cream or compound 1 were applied topically to the dorsal area. Tumor incidence and multiplicity were recorded weekly until the end of the experiment at week 28.
Female SKH-1 hairless mice were purchased from Charles River and were acclimated for 2 weeks before the study and had free access to food and water. All animals were maintained according to the guidelines approved by the University of Minnesota Institutional Animal Care and Use Committee (IACUC). The animals were housed in climate-controlled quarters with a 12-h light/dark cycle. The skin carcinogenesis experiments were conducted using 6-8 wk old mice with a mean body weight of 25 g. Skin carcinogenesis was induced by a solar simulated ultraviolet irradiation system. The SUV irradiation source (Q-Lab Corporation, Westlake, Ohio) emitted at wavelengths of 295 to 365 nm and the peak emission was 340 nm.
The two mouse models included an early-stage prevention model and a late-stage prevention model. These models were designed for detecting either the respective chemopreventive effect or the potential therapeutic value of compound 1 against SUV-induced skin damage and carcinogenesis. For the early-stage prevention study, SKH-1 mice were divided into 7 groups and an oil-in-water emulsion cream was applied topically as the vehicle with or without compound 1. The three control groups included 1) mice (n=3) not treated with vehicle or SUV; 2) mice (n=3) treated with vehicle but no SUV; and 3) mice (n=3) treated with 1 mg compound 1 in vehicle but not exposed to SUV. Experimental groups included 1) mice (n=12) treated with SUV only; 2) mice (n=12) treated with vehicle followed by SUV 1 h later; 3) mice (n=12 each group) treated with topical application of 0.1 or 1 mg of compound 1 in vehicle 1 h before SUV irradiation. The topical applications and SUV treatment were applied 3 times a week for a total of 15 weeks. At 15 weeks, SUV irradiation was discontinued and topical applications continued with tumor growth monitoring for an additional 13 weeks until week 28 at which time mice were euthanized and tissues harvested.
At week 1, mice were irradiated with SUV at a dose of 36 kJ/m^2 UVA and 1.8 kJ/m^2 UVB. At week 6, the dose of SUV reached 60 kJ/m^2 UVA and 2.9 kJ/m^2 UVB and this dose was maintained from week 6 to week 15. […]

In the case of O=C1Nc2ccc(C34CC5CC(CC(C5)C3)C4)cc2C1=NO [compound 1, 5-(adamantan-1-yl)-3-(hydroxyimino)indolin-2-one], the SUV-induced tumor volume (early-stage model (FIG. 4B)) is reported as “suppresses”, the SUV-induced epidermal thickness (early-stage model, 0.1 or 1 mg, H&E) is reported as “decreased” and the “SUV-induced phosphorylation of ERK1/2, p38, and JNKs in mouse skin” value (early-stage model, Western blot) is reported as “dramatically suppressed”. The “expression of PCNA” value (early-stage model, immunohistochemistry of skin) was “decreased”, the “average number of SUV-induced tumors” value (early-stage model, week 28 (FIG. 4C)) was “suppresses” and the SUV-induced papilloma formation (early-stage prevention group, topical 0.1 or 1 mg) was “total inhibition”. The body weight (topical application on dorsal skin, early-stage model, to week 28) was “no effect on body weight”.
